From patent US10399958B2, “PPAR agonists, compounds, pharmaceutical compositions, and methods of use thereof” (Mitobridge, Inc., priority 2015, dated 2019)
Where two headings read alike, the source gives them in different places.

Legend:
[1] = Pharmacokinetic (PK) screening (i.v.) in male CD1 mice; assay type: in vivo, mouse; conditions: male, CD1, mouse, plasma, iv, 1 mg/kg, I.V. 1 mg/kg dose, plasma
Method: In this example, the intravenous PK profile of several PPARδ agonists disclosed herein in male CD1 mice was determined. Similar methods can be used to analyze other compounds provided herein. All compounds were administered separately to CD1 mice at 1 mg/kg (i.v.), except the comparator compound to 2c was administered at 3 mg/kg (i.v.), as noted below.

[2] = test system: DMD human skeletal muscle cells; assay: Mitochondrial biogenesis (BrdU labeling); assay type: cell-based; conditions: DMD patient cells, treated from day 4 of differentiation, FIG. 2
Method: DMD human skeletal muscle cells were plated into 96 well plates. Media was changed to Differentiation Medium and cells were allowed to differentiate for 7 days. […] Three days later cells were labeled with bromodeoxyuridine (BrdU) in culture media for 2 hours. Following the incubation, cells were washed, and then incubated with anti-BrdU antibody overnight at 4° C. The next day, samples were washed incubated with anti-mouse IgG HRP for 45 min at 37° C., and then washed. Optical density was measured at 450 nm wavelength on a SpectraMax M5 (Molecular Devices).
Data was analyzed in Graph Pad Prism. Normality of distribution was determined by D'Agostino-Pearson omnibus normality test. If the samples were normally distributed, they were analyzed by One-Way ANOVA followed by a post hoc Dunnett's test vs DMSO control cells or unpaired two tailed T-test. If the samples were not normally distributed, then a Kruskal-Wallis test was used to determine significance.

[3] = test system: mdx mouse; assay: Endurance running assay (treadmill) in mdx mouse model of Duchenne Muscular Dystrophy; assay type: in vivo; conditions: mdx mice, 10 or 30 mg per kg PO, 34-35 days, FIG. 3
Text: PPARδ is activated in response to exercise where it will elicit an increase in fatty acid utilization. Duchenne Muscular Dystrophy is a progressive, early-onset degenerative muscle disease with associated muscle function deficits resulting from the loss of the protein dystrophin. Fatty acid metabolism and altered mitochondrial function are reported to be an aspect of the disease.
C57BL/10ScSn-Dmdmdx/J and C57BL/10ScSnJ mice ˜5-7 weeks of age were received and housed singly in polycarbonate cages. Animals were fed standard chow and had access to feed and water at all times ad libitum. […] Vehicle was dosed for control groups. All the animals were dosed by oral gavage (PO) for 34-35 days. The mice were dosed at 8 AM on the last in-life study day with the necropsy started 2 hours after the final dose.
Mice were acclimated to a moving belt treadmill in a series of acclimation runs before evaluation for overall endurance at a set maximal speed. Each mouse was run in a separate lane that contained an electric stimulating grid. The number of visits to the electric stimulating grid and the number of shocks each animal received were recorded by the instrument and a technician evaluated the animal during the run to determine the time and distance to exhaustion. The maximum speed for all the three endurance runs was capped at 20 m/min. […]

[4] = test system: mdx mouse muscle; assay: Histology pathology assessment of muscle in mdx mice; assay type: in vivo
Text: Similar to the muscle pathology in Duchenne Muscular Dystrophy, mdx mice have dystrophic pathologies in skeletal muscle that is apparent soon after birth. Key aspects of this phenotype evident by pathology are the loss of myofibers through apoptosis/necrosis, evidence of regenerating muscle fibers, infiltrating immune cells, and increased muscle fibrosis.
Animals and dosing were as previously described. See Example 4.
Quadriceps, gastrocnemius and tibialis anterior muscles were harvested at necropsy, and fixed by immersion in 10% neutral buffered formalin and embedded in paraffin. Tissues were sectioned at […] from each block and slides were evaluated by a board certified veterinary pathologist. Histopathologic evaluation included qualitative and semi-quantitative evaluation for myofiber necrosis, inflammation, myofiber regeneration and interstitial fibrosis, as outlined in Tables 1, 2, and 3, respectively.
(§1) Diaphragm weights, histology scores and immunofluorescence data were tested using a parametric test if normality was confirmed by Shapiro-Wilk normality test (unpaired t-test for 2 groups or One way ANOVA followed by post hoc Dunn's multiple comparison testing versus the mdx vehicle group for 3 groups) and a Mann-Whitney test (2 groups) or Kruskal-Wallis One-Way ANOVA (non-parametric) followed by post hoc Dunn's multiple comparison testing versus the mdx vehicle group (3 groups) if the data were not normally distributed.

[5] = test system: mdx mouse quadriceps muscle; assay: Immunofluorescent (IgM) assessment of muscle necrosis in mdx mice; assay type: in vivo; conditions: IgM immunofluorescence, FIG. 5
Method: Precut paraffin section slides were deparaffinized and incubated with AlexaFluor 488 conjugated wheat germ agglutinin followed by an incubation with Alexa 568 conjugated anti-mouse IgM (abcam, Product #ab175702). Slides were washed and mounted with coverslips using ProLong Diamond Antifade Mountant with DAPI. Imaging was performed on a Nikon fluorescent microscope using a 40× objective and composite images were stitched together using NIS Elements Software, V4.4 (Nikon, Tokyo, Japan). Analysis was completed using Image J 1.50b, Java 1.8.0_60 (64 bit).
as §1
Quadriceps muscle sections were labeled fluorescently to detect IgM antibody accumulation within damaged myofibers, an indication of loss of myofiber integrity and active necrosis. Each muscle section was imaged in its entirety and the number and size of necrotic regions was measured. […]

[6] = test system: mdx mouse diaphragm; assay: Diaphragm fibrosis by hydroxyproline assay in mdx mice; assay type: in vivo; conditions: FIG. 10
Method: Diaphragm samples were harvested carefully and the central tendon was cut away to ensure hydroxyproline signal was derived from muscle and not collagen-rich tendon. Hydroxyproline assay was performed according to the manufacturers' instructions (Sigma-Aldrich Hydroxyproline Assay Kit). Final values were calculated as follows: […]
as §1
Diaphragms were evaluated for fibrosis by measuring hydroxyproline, an amino acid unique to collagen, in digested muscle. Mdx mice were confirmed to have increased fibrosis versus non-dystrophic control mice (FIG. 9).

[7] = test system: Sprague-Dawley rat acute kidney injury; assay: Ischemia-reperfusion kidney injury in rats, plasma creatinine; assay type: in vivo; conditions: 30 mg/kg orally 4 hours after surgery, blood 24 hours after reperfusion, FIG. 11
Method: Sprague-Dawley male rats approximately 280-300 g, with ad libitum access to standard feed and water were used in these experiments. Rats were anesthetized with isoflurane and placed ventrally on a temperature controlled heated surgical platform. A skin incision was made on the dorsal surface, exposing both kidneys through flank incisions. Vascular clips were applied to both renal pedicles and occlusion lasted 45 minutes. After 45 min, the clips were removed, kidneys were monitored for successful reperfusion, and surgical sites were sutured. The sham group was subjected to similar surgical procedures, except that the occluding clamps were not applied. Four independent studies, testing each compound were performed. Compounds were formulated as a fresh daily suspension in 0.25% sodium carboxymethyl-cellulose, 0.25% Tween-80 in purified water. Compounds were dosed orally at 30 mg/kg 4 hours after animals awoke from surgery and sham surgery and IRI control animals were similarly dosed with vehicle.
Twenty-four (24) hours after reperfusion, blood was collected in K2 EDTA tubes by retro-orbital bleeding from all groups under mild isoflurane anesthesia. Plasma was separated by centrifugation at 3000 rpm for 10 minutes at 4° C. Plasma creatinine was analyzed using a fully automated clinical biochemistry analyzer (Siemens Dimension® Xpand® Plus Integrated Chemistry System)
Creatinine was tested for normal distribution in all groups via a D'Agostino-Pearson omnibus normality test and a Shapiro-Wilk normality test. Normally distributed data was subjected to an unpaired, two-tailed t test. Non-normally distributed data was subjected to a Mann-Whitney test (non-parametric). Statistical significance is determined by p<0.05 of IRI-vehicle compared to compound treated groups.

With `Cc1cnc(-c2ccc(C(F)(F)F)cc2)n1Cc1ccccc1OCCC[C@@H](C)CC(=O)O` [Compound 2d, (R)-3-methyl-6-(2-((5-methyl-2-(4-(trifluoromethyl)phenyl)-1H-imidazol-1-yl)methyl)phenoxy)hexanoic acid] the clearance ([1]; read-out: CL) was 25 mL/min/kg, the clearance ([1]; read-out: High or Low CL) was less than 85 mL/min/kg and the Mitochondrial biogenesis [2] was “increased in a dose-dependent manner”. The Treadmill running distance [3] was “increased distance over mdx vehicle treated group mice”, the “Pathology scored necrosis, quadriceps” value ([4]; 10 or 30 mg per kg PO, 34-35 days, FIG. 4) was “Decreased necrosis” and the “Inflammation, quadriceps muscle” value ([4]; FIG. 6) was “Decreased inflammation”. For the same compound, the Quadriceps muscle regeneration ([4]; FIG. 7) was “increases”, the Diaphragm muscle necrosis ([4]; FIG. 8) was “reduced diaphragm necrosis” and the “Necrotic region size, quadriceps” value [5] was “decreased”. The “Diaphragm fibrosis (hydroxyproline)” value [6] was “reduced fibrosis” and the Plasma creatinine [7] was “reduce plasma creatinine”.
